In brackets after ≈: the same amount, converted by molar mass.
Columns and labels:
[1] = test system: Staphylococcus aureus LMG15975 (MRSA); format: cell-based; conditions: broth microdilution, inoculum ~5 × 10^5 CFU/mL, overnight 37 °C, HPLC-purified peptides
Procedure: (§1) The minimal inhibitory concentration (MIC) values were assessed through broth microdilution following standard guidelines. The inoculum was adjusted to around 5 × 10^5 CFU/mL. MIC was characterized as the lowest concentration of the antimicrobial substance at which no visible growth was observed following overnight incubation at 37 °C.

[2] = test system: Enterococcus faecium LMG16003 (VRE); format: cell-based; conditions: broth microdilution, inoculum ~5 × 10^5 CFU/mL, overnight 37 °C, HPLC-purified peptides
Procedure: as §1

Bacillus cereus CH-85 = assay: MIC, broth microdilution; format: cell-based; conditions: inoculum ~5 × 10^5 CFU/mL, overnight 37 °C, HPLC-purified peptides
Procedure: as §1

[3] = test system: Listeria monocytogenes LMG10470; assay: MIC, broth microdilution; format: cell-based; conditions: inoculum ~5 × 10^5 CFU/mL, overnight 37 °C, HPLC-purified peptides
Procedure: as §1

E. faecium = format: cell-based, Enterococcus faecium; conditions: compared to the same peptide labeled with Met; 30 μL of 1 mg/mL in 8 mm wells; zone area minus well area; 3 experiments
Procedure: 2 Production of single-Met containing nisin and nisin variants labeled with Met, Hpg or Hpg–Glc and their antibacterial activity against E. faecium strain. (a) Quantification of fully modified nisin variants labeled with Met or Hpg using HPLC as per Schmitt et al. (b) Evaluation of the antimicrobial efficacy of nisin and its variants against E. faecium through agar well diffusion assay. Each trial was repeated 3 times. The relative activity was determined by measuring inhibition zone diameters in millimeters, calculated as the area of the zone (πr ^2) minus the area of the well (πr ^2) in millimeters.
An overnight culture was added at a concentration of 0.1% (v/v) to molten GM17 agar (for E. faecium and E. faecalis) or LB agar (for S. aureus and B. cereus) at 45 °C, and then 30 mL of this mixture was poured onto a plate. After the agar solidified, wells of 8 mm were created by punching in the agar and filled with 30 μL of a 1 mg/mL lantibiotic solution. If needed, lantibiotics were activated by adding 3 μL of 1 mg/mL NisP directly to the well. The quantity of nisin was determined using HPLC as previously outlined. The agar plate was then incubated at 37 °C overnight, and the zones of inhibition were measured. The presented data results from three independent experiments. Zone diameters were measured in millimeters and recorded as the area of the zone (πr ^2) minus the area of the well (πr ^2) in millimeters.

SMILES | MIC [1] | MIC [2] | MIC (Bacillus cereus CH-85) | MIC [3] | decrease in zone of inhibition (activity) on Hpg labeling (E. faecium)
C#CCC[C@H](NC(=O)[C@H](CC(N)=O)NC(=O)[C@@H]1CS[C@@H](C)[C@@H](NC(=O)[C@H](CCCCN)NC(=O)[C@@H]2CS[C@@H](C)[C@@H](NC(=O)[C@@H]3CSC[C@@H](NC(=O)/C(=C/C)NC(=O)[C@@H](N)[C@@H](C)CC)C(=O)N[C@@H]([C@@H](C)CC)C(=O)NC(=C)C(=O)N[C@@H](CC(C)C)C(=O)N3)C(=O)N3CCC[C@H]3C(=O)NCC(=O)N2)C(=O)NCC(=O)N[C@@H](C)C(=O)N[C@@H](CC(C)C)C(=O)N[C@@H]([C@@H](C)CC)C(=O)NCC(=O)N1)C(=O)N[C@@H](CCCCN)C(=O)N[C@H]1C(=O)N[C@@H](C)C(=O)N[C@H]2C(=O)N[C@@H](CS[C@H]1C)C(=O)N[C@@H](Cc1c[nH]cn1)C(=O)N[C@H](C(=O)N[C@@H](CO)C(=O)N[C@H](C(=O)N[C@@H](Cc1c[nH]cn1)C(=O)N[C@H](C(=O)NC(=C)C(=O)N[C@@H](CCCCN)C(=O)O)C(C)C)[C@@H](C)CC)CS[C@H]2C [nisin(M17I)(Hpg)] | 30.4 µg/mL (≈ 9.17 µM) | 15.2 µg/mL (≈ 4.59 µM) | 121.5 µg/mL (≈ 36.7 µM) | 121.5 µg/mL (≈ 36.7 µM) | 30%
C#CCC[C@@H]1NC(=O)[C@H](CC(C)C)NC(=O)[C@H](C)NC(=O)CNC(=O)[C@H](NC(=O)[C@H](CCCCN)NC(=O)[C@@H]2CS[C@@H](C)[C@@H](NC(=O)[C@@H]3CSC[C@@H](NC(=O)/C(=C/C)NC(=O)[C@@H](N)[C@@H](C)CC)C(=O)N[C@@H]([C@@H](C)CC)C(=O)NC(=C)C(=O)N[C@@H](CC(C)C)C(=O)N3)C(=O)N3CCC[C@H]3C(=O)NCC(=O)N2)[C@H](C)SC[C@@H](C(=O)N[C@@H](CC(N)=O)C(=O)N[C@H](C(=O)N[C@@H](CCCCN)C(=O)N[C@H]2C(=O)N[C@@H](C)C(=O)N[C@H]3C(=O)N[C@@H](CS[C@H]2C)C(=O)N[C@@H](Cc2c[nH]cn2)C(=O)N[C@H](C(=O)N[C@@H](CO)C(=O)N[C@H](C(=O)N[C@@H](Cc2c[nH]cn2)C(=O)N[C@H](C(=O)NC(=C)C(=O)N[C@@H](CCCCN)C(=O)O)C(C)C)[C@@H](C)CC)CS[C@H]3C)C(C)C)NC(=O)CNC1=O [nisin(M21V)(Hpg)] | 15.2 µg/mL (≈ 4.61 µM) | 7.6 µg/mL (≈ 2.3 µM) | 30.4 µg/mL (≈ 9.21 µM) | 30.4 µg/mL (≈ 9.21 µM) | 17%

Source: publication PMC12455637, “Functionalizing Nisin with a Sugar Moiety Improves Its Solubility and Results in an Altered Antibacterial Spectrum and Mode of Action” (ACS Synthetic Biology, 2025)
